Earlier results as cited in patent US20190208766A1, “COMPOSITION FOR THE CONSERVATION/FIXATION OF BIOLOGICAL MATERIAL” (priority 2016, published 2019).

System: airways
Settings: in vivo

For `C=O` [formaldehyde], the “concentration causing sense of suffocation” value is given as “greater than 10 ppm” and the “exposure that can lead to pulmonary edema” value is given as “greater than 20 ppm”.
